The subject of the experiment is HIV-1 (IIIB strain). Put plainly: Anti-HIV cytoprotection assay (XTT), HIV-1 IIIB in CEM-SS cells. Type of experiment: cell-based. The following applies: Human immunodeficiency virus 1, IIIB, CEM-SS, CEM-SS cell line; read-out: Inhibitory activity (EC50) against HIV-1 (IIIB strain). The text has this: a) Inhibitory Activity of the Lymphocytropic Virus Strain HIV-1 (IIIB) in the CEM-SS Cell Line.
The evaluation was done by ImQuest BioSciences, Inc. (Frederick, Md., USA). CEM-SS cells [Foley G. E. et al. Continuous Culture of Human Lymphoblasts from Peripheral Blood of a Child with Acute Leukemia. Cancer 1965, 18, 522-529] obtained through the NIH AIDS Research and Reference Reagent Program (Manassas, Va., USA) were passaged in T-75 flasks prior to use cell culture medium consisting of RPMI1640 medium (Lonza; Walkersville, Md., USA) supplemented with 10% heat inactivated fetal bovine serum (Gibco; Grand Island, N.Y.), […] L-glutamine (Lonza), […] penicillin (Lonza) and […] streptomycin (Lonza) for antiviral analysis. The CEM-SS cells were kept in RPMI 140 medium supplemented with 10% heat inactivated bovine fetal serum, 2 mM glutamine, 100 U/ml penicillin, and 100 μg/ml streptomycin.
A lymphocytropic HIV-1 IIIB strain [Popovic, M. et al. Detection, isolation, and continuous production of cytopathic retroviruses (HTLV-III) from patients with AIDS and pre-AIDS. Science. 1984, 224 (4648), 497-500] was chosen for a virus to be analyzed. The virus was obtained through the NIH AIDS Research and Reference Reagents Program and grown in CEM-SS cells to produce a stock virus pool. A pre-titrated aliquot of the virus was removed from the freezer (−80° C.) and allowed to slowly thaw to room temperature in a biological safety cabinet. The virus was diluted in a tissue culture medium so that the amount of virus added in 50 μl per well was sufficient to kill 85 to 95% of the cells 6 days after infection. HIV-1 IIIB was grown and titrated in CEM-SS cells. The inhibitory effect of […] was evaluated in CEM-SS cells as described earlier [Nara, P. L. at al. Simple, rapid, quantitative, syncytium-forming microassay for the detection of human immunodeficiency virus neutralizing antibody. AIDS Res. Hum. Retroviruses 1987, 3, 283-302.] in microtiter plate anti-HIV assays to quantitatively assess the ability of a compound to inhibit HIV-induced cell death. Quantification was carried out using 2,3-bis-(2-methoxy-4-nitro-5-[…])-(2H)-tetrazolium-5-carboxanilide (XTT) tetrazolium, which is metabolized to a stained formazan product through viable […] The compounds given in Table 1 were dissolved at 10 μM in DMSO and stored at −20° C.
Test materials were evaluated using antiviral assays in triplicate in concentrations of 30 and 10 nM. The compounds shown in table 1 were dissolved at 10 μM in DMSO and stored at −20° C. […] Sixty nanomolar concentrations of each compound (2 times that of the test concentration in the well) were prepared by diluting 10 μM DMSO stock 1:100 in cell culture medium (10 μl of compound added to 990 μl of the medium) followed by 1:10 dilution (10 μl of the compound was added to 90 μl of the medium), then 6 μl was added to 994 μl of the medium; […] μl was added to a 96-well microtiter plate in triplicate to ensure efficacy and one colorimetric well. Twenty nanomolar concentrations of each compound (twice as much as the test concentration in the well) were prepared by diluting 10 μM DMSO with the original 1:100 in cell culture medium (10 μl of the compound added to 990 μl of the medium) followed by diluting […] (10 μl of the compound was added to 900 μl of the medium), then 20 μl was added to 980 μl of the medium; 100 μl was added to a 96-well microtiter plate in triplicate to ensure efficacy and one colorimetric well.
Azidothymidine (AZT) was purchased from Sigma Aldrich (USA) and evaluated as a positive control compound in an antiviral assay using a six-concentration reaction curve on each assay plate.
Test compounds were initially evaluated for HIV-1 IIIB strain in CEM-SS cells at test concentrations of 30 and 10 nM. […]
For `C[C@H]1CO[C@@H]2Cn3cc(C(=O)NCc4cn5cc(Cl)sc5n4)c(=O)c(O)c3C(=O)N12` [Compound 1.1.28, (3S,11aR)-6-hydroxy-3-methyl-N-[(2-chloroimidazo[2,1-b][1,3]thiazol-6-yl)methyl]-5,7-dioxo-2,3,5,7,11,11a-hexahydro[1,3]oxazolo[3,2-a]pyrido[1,2-d]pyrazine-8-carboxamide], the half-maximal effective concentration (EC50) is above 30 nM.
Turning to `O=C(NCc1c(F)cc(F)nc1F)c1cn2c(c(O)c1=O)C(=O)N1[C@H]3CC[C@H](C3)O[C@@H]1C2` [Compound 1.3.2, (2R,5S,13aR)-8-hydroxy-N-[(2,4,6-trifluoropyridin-3-yl)methyl]-7,9-dioxo-2,3,4,5,7,9,13,13a-octahydro-2,5-methanopyrido[1′,2′:4,5]pyrazino[2,1-b][1,3]oxazepine-10-carboxamide], the EC50 was in the range of 2 to 10 nM.
With `C[C@H]1CO[C@@H]2Cn3cc(C(=O)NCc4cn5cccnc5n4)c(=O)c(O)c3C(=O)N12` [Compound 1.1.58, (3S,11aR)-6-hydroxy-N-(imidazo[1,2-a]pyrimidin-2-ylmethyl)-3-methyl-5,7-dioxo-2,3,5,7,11,11a-hexahydro[1,3]oxazolo[3,2-a]pyrido[1,2-d]pyrazine-8-carboxamide], the EC50 is above 30 nM.
As to `C[C@@H]1CCO[C@H]2Cn3cc(C(=O)NCc4c(F)cncc4F)c(=O)c(O)c3C(=O)N12` [Compound 1.2.4, (4R,12aS)-7-hydroxy-N-[(3,5-difluoropyridin-4-yl)methyl]-4-methyl-6,8-dioxo-3,4,6,8,12,12a-hexahydro-2H-pyrido[1′,2′:4,5]pyrazino[2,1-b][1,3]oxazine-9-carboxamide], the EC50 was in the range of 2 to 10 nM.
For `CCn1nc(C)c(CNC(=O)c2cn3c(c(O)c2=O)C(=O)N2[C@@H](C)CO[C@@H]2C3)c1C` [Compound 1.1.6, (3S,11aR)-6-hydroxy-N-[(1-ethyl-3,5-dimethyl-1H-pyrazol-4-yl)methyl]3-methyl-5,7-dioxo-2,3,5,7,11,11a-hexahydro[1,3]oxazolo[3,2-a]pyrido[1,2-d]pyrazine-8-carboxamide], the 50% effective concentration (EC50) is 10 to 30 nM.
With `C[C@@H]1CO[C@@]23CCC[C@@H]2n2cc(C(=O)NCc4c(F)cncc4F)c(=O)c(O)c2C(=O)N13` [Compound 2.1.2, (3aS,6R,13aS)-9-hydroxy-N-[(3,5-difluoropyridin-4-yl)methyl]-6-methyl-8,10-dioxo-1,2,3,5,6,8,10,13a-octahydrocyclopenta[b][1,3]oxazolo[3,2-a]pyrido[1,2-d]pyrazine-11-carboxamide], the EC50 was 2 to 10 nM.
Then `C[C@H]1CO[C@@H]2Cn3cc(C(=O)NCc4n[nH]c5c4CCCCC5)c(=O)c(O)c3C(=O)N12` [Compound 1.1.62, (3S,11aR)-6-hydroxy-N-(1,4,5,6,7,8-hexahydrocyclohepta[c]pyrazol-3-ylmethyl)-3-methyl-5,7-dioxo-2,3,5,7,11,11a-hexahydro[1,3]oxazolo[3,2-a]pyrido[1,2-d]pyrazine-8-carboxamide], with 2 to 10 nM; and `C[C@H]1CO[C@@H]2Cn3cc(C(=O)NCc4ccc5sccc5c4)c(=O)c(O)c3C(=O)N12` [Compound 1.1.31, (3S,11aR)-N-(1-benzothien-5-ylmethyl)-6-hydroxy-3-methyl-5,7-dioxo-2,3,5,7,11,11a-hexahydro[1,3]oxazolo[3,2-a]pyrido[1,2-d]pyrazine-8-carboxamide], with 2 to 10 nM; and `Cc1nc2cc(CNC(=O)c3cn4c(c(O)c3=O)C(=O)N3[C@@H](C)CO[C@@H]3C4)ccc2n1C` [Compound 1.1.64, (3S,11aR)-6-hydroxy-3-methyl-N-[(1,2-dimethyl-1H-benzimidazol-5-yl)methyl]-5,7-dioxo-2,3,5,7,11,11a-hexahydro[1,3]oxazolo[3,2-a]pyrido[1,2-d]pyrazine-8-carboxamide], with above 30 nM.
As to `C[C@H]1CO[C@@H]2Cn3cc(C(=O)NCc4cnc5ccccc5c4)c(=O)c(O)c3C(=O)N12` [Compound 1.1.50, (3S,11aR)-6-hydroxy-3-methyl-N-(quinolin-3-ylmethyl)-5,7-dioxo-2,3,5,7,11,11a-hexahydro[1,3]oxazolo[3,2-a]pyrido[1,2-d]pyrazine-8-carboxamide], the EC50 lay in the range of 2 to 10 nM.
The same measure for `CC(C)n1c(CNC(=O)c2cn3c(c(O)c2=O)C(=O)N2[C@@H](C)CO[C@@H]2C3)nc2ccccc21` [Compound 1.1.44, (3S,11aR)-6-hydroxy-3-methyl-N-{[1-isopropyl-1H-benzimidazol-2-yl]methyl}-5,7-dioxo-2,3,5,7,11,11a-hexahydro[1,3]oxazolo[3,2-a]pyrido[1,2-d]pyrazine-8-carboxamide]: above 30 nM; for `C[C@H]1CO[C@@H]2Cn3cc(C(=O)NCc4cc5c(cc4Br)OCO5)c(=O)c(O)c3C(=O)N12` [Compound 1.1.35, (3S,11aR)-N-[(6-bromo-1,3-benzodioxol-5-yl)methyl]-6-hydroxy-3-methyl-5,7-dioxo-2,3,5,7,11,11a-hexahydro[1,3]oxazolo[3,2-a]pyrido[1,2-d]pyrazine-8-carboxamide]: below 2 nM; for `C[C@H]1CO[C@@H]2Cn3cc(C(=O)NCc4ccc5c(c4)OCO5)c(=O)c(O)c3C(=O)N12` [Compound 1.1.34, (3S,11aR)-N-(1,3-benzodioxol-5-ylmethyl)-6-hydroxy-3-methyl-5,7-dioxo-2,3,5,7,11,11a-hexahydro[1,3]oxazolo[3,2-a]pyrido[1,2-d]pyrazine-8-carboxamide]: 2 to 10 nM.
With `C[C@H]1CO[C@@]23CCC[C@@H]2n2cc(C(=O)NCc4ccc(F)nc4F)c(=O)c(O)c2C(=O)N13` [Compound 2.2.1, (3aS,6S,13aS)-9-hydroxy-N-[(2,6-difluoropyridin-3-yl)methyl]-6-methyl-8,10-dioxo-1,2,3,5,6,8,10,13a-octahydrocyclopenta[b][1,3]oxazolo[3,2-a]pyrido[1,2-d]pyrazine-11-carboxamide], the 50% effective concentration (EC50) is around 10 nM.
For the compound `Cc1n[nH]c(C)c1CNC(=O)c1cn2c(c(O)c1=O)C(=O)N1[C@@H](C)CO[C@@H]1C2` [Compound 1.1.4, (3S,11aR)-6-hydroxy-N-[(3,5-dimethyl-1H-pyrazol-4-yl)methyl]-3-methyl-5,7-dioxo-2,3,5,7,11,11a-hexahydro[1,3]oxazolo[3,2-a]pyrido[1,2-d]pyrazine-8-carboxamide], the EC50 is around 8 nM.
Regarding `C[C@@H]1CCO[C@H]2Cn3cc(C(=O)NCc4c(F)cc(F)nc4F)c(=O)c(O)c3C(=O)N12` [Compound 1.2.3, (4R,12aS)-7-hydroxy-4-methyl-N-[(2,4.6-trifluoropyridin-3-yl)methyl]-6,8-dioxo-3,4,6,8,12,12a-hexahydro-2H-pyrido[1′,2′:4,5]pyrazino[2,1-b][1,3]oxazine-9-carboxamide], the EC50 was 2 to 10 nM.
The same measure for `C[C@H]1CO[C@@H]2Cn3cc(C(=O)NCc4nnc5n4CCCC5)c(=O)c(O)c3C(=O)N12` [Compound 1.1.61, (3S,11aR)-6-hydroxy-3-methyl-N-(5,6,7,8-tetrahydro[1,2,4]triazolo[4,3-a]pyridin-3-ylmethyl)-5,7-dioxo-2,3,5,7,11,11a-hexahydro[1,3]oxazolo[3,2-a]pyrido[1,2-d]pyrazine-8-carboxamide]: above 30 nM; for `C[C@H]1CO[C@@H]2Cn3cc(C(=O)NCc4nncn4C)c(=O)c(O)c3C(=O)N12` [Compound 1.1.14, (3S,11aR)-6-hydroxy-3-methyl-N-[(4-methyl-4H-1,2,4-triazol-3-yl)methyl]-5,7-dioxo-2,3,5,7,11,11a-hexahydro[1,3]oxazolo[3,2-a]pyrido[1,2-d]pyrazine-8-carboxamide]: around 10 nM.
